The values below come from patent US4777172A, “Pyrimidylalkylthio benzimidale compounds, pharmaceutical compositions and use” (Smith Kline & French Laboratories Limited, priority 1986, dated 1988).

Molecules are shown by their SMILES. Where a name gives a salt, the structure may show the parent alone.

Assay [1] deals with rabbit intact gastric glands (dibutyryl cAMP stimulated). As to the kind of experiment: Aminopyrine (AP) accumulation in intact gastric glands. Format: cell-based, New Zealand white rabbits. Conditions: Oryctolagus cuniculus, 0.5 h; 300 μM dibutyryl cAMP, 30 minutes at 37° C, pH 7.4; amount required to inhibit stimulated aminopyrine accumulation by 50%. On the procedure: B. Aminopyrine (AP) accumulation in intact gastric glands
The effect of a single concentration (100 μm) of a compound of structure (I) on dibutyryl cAMP stimulated AP […] in rabbit intact gastric glands was determined. Preferred compounds of structure (I) were tested over a range of concentrations to determine the IC50 value.
(i) Preparation of intact gastric glands.
Intact gastric glands were prepared from New Zealand white rabbits by the method of Berghindh et al. (Acta. Physio. Scand. 96, 150, 1976). Gastric mucosal scrapings were digested at 37° C. for 45-60 min. with Collagenase (100 U, Type 1, Sigma), and glands harvested by coarse filtration and sedimentation.
Test compound was incubated with glands and 300 μM dibutyryl cAMP for 30 minutes at 37° C. Incubating medium contained 132.5 mM NaCl, 5.4 mM KCl, 1.0 mM NaH2 PO4, 5.0 mM Na2 HPO4, 1.2 mM MgSO4, 1.0 mM CaCl2, 11.1 mM glucose, 2.0 mg/ml rabbit albumin, 10 μg/ml phenol red, approximately 0.3 uM[^14 C] […] (110 mCi/mmole), pH 7.4.
After incubation, glands were centrifuged and the supernatant removed. The glands were dried, weighed and dissolved in NaOH. The distribution of radioactivity between the supernatant and glands is then used to calculate the AP ratio after the method of Berglindh et al. (Acta. Physiol. Scand. 97, 401, 1976).
The IC50 value is the amount of compound required to inhibit the stimulated accumulation of aminopyrine by 50%.

In assay [2] the test system is histamine stimulated gastric acid secretion. Put plainly: Rat: Lumen perfused stomach (histamine stimulated gastric acid secretion). Format: in vivo. An excerpt:
C. Rat: Lumen perfused stomach (histamine stimulated gastric acid secretion).
Using a modification of the procedure described by Ghosh and Schild (Br. J. Pharmacology, 13, 54, 1958), ED50 values after either intraduodenal (i.d) or intravenous (i.v) administration were obtained as follows: […]

The test system of the next assay is H^+ -K^+ -ATPase. Put plainly: K^+ Stimulated ATPase Activity. Format: biochemical, pig. On the procedure: A. K^+ Stimulated ATPase Activity
The effects of a single high concentration (1 mM) of a compound of structure (I) on H^+ -K^+ -ATPase were determined at pH 6.1 and pH 7.4. Preferred compounds of structure (I) were also tested over a range of concentrations to determine IC50 values at pH 6.1 and 7.4.
(i) Preparation of Lyophilised Gastric Vesicles (H^+ -K^+ -ATPase)
H^+ -K^+ -ATPase was prepared from the lyophilised gastric vesicles of pig fundic mucosa after the method of Saccomani et. al. (Biochem and Biophys. Acta., 465, 311, 1977).
(ii) K^+ Stimulated ATPase Activity
Compounds of structure (I) were pre-incubated with H^+ -K^+ -ATPase preparation 30 μg protein/ml from (i) in 10 mM Pipes/Tris buffer pH 6.1 and pH 7.4.
After 30 minutes at 37° the pre-incubation was diluted 5-fold with assay buffer to start the ATPase reaction. The conditions in the assay are 100 mM Pipes/Tris, 2 mM MgCl2, 10 mM KCl, 5 μg/ml nigericin, 2 mM Na2 ATP, pH 7.0. After an incubation at 37° for 15 minutes the inorganic phosphate released was determined by the method of Yoda & Hokin (Biochem. Biophys. Res. Com. 40, 880, 1970).
The effect of the same concentration of compound of structure (I) (pre-incubated with H^+ -K^+ -ATPase preparation at pH 7.4 as described above) on the recovery of 100 nmole of inorganic phosphate was also determined. […]

[3] abbreviates: i.d. (intraduodenal) administration.

In assay [1], `COc1ccc2[nH]c([S+]([O-])Cc3ncnc(N(C)C)c3C)nc2c1` (stereo not shown) [Example 17, 5-methoxy-2-(5-methyl-6-dimethylamino-4-pyrimidinylmethylsulphinyl)-(1H)-benzimidazole] showed an IC50 of 3330 nM. On to `COc1ccc2[nH]c([S+]([O-])Cc3ncnc(N4CCCCC4)c3C)nc2c1` (stereo not shown) [Example 11, 5-methoxy-2-(5-methyl-6-piperidino-4-pyrimidinylmethylsulphinyl)-(1H)-benzimidazole], for which 6150 nM corresponded to half-maximal inhibition in assay [1] (IC50).

In turn, `COc1ccc2[nH]c([S+]([O-])Cc3ncnc(N4CCOCC4)c3C)nc2c1` (stereo not shown) [Example 15, 5-methoxy-2-(5-methyl-6-morpholino-4-pyrimidinylmethylsulphinyl)-(1H)-benzimidazole] registered an IC50 in assay [1] of 5000 nM. Take `COc1ccc2[nH]c([S+]([O-])Cc3nccc(N(C)C)n3)nc2c1` (stereo not shown) [Example 9, 5-methoxy-2-(4-dimethylamino-2-pyrimidinylmethylsulphinyl)-(1H)-benzimidazole]: the ED50 in assay [2] (setting [3]) was 2.4 µmol/kg. Besides, the 50% inhibitory concentration (IC50) in assay [1] worked out at 1200 nM.

In the case of `COc1ccc2[nH]c([S+]([O-])Cc3ncnc(N4CCCC4)c3C)nc2c1` (stereo not shown) [Example 13, 5-methoxy-2-(5-methyl-6-pyrrolidino-4-pyrimidinylmethylsulphinyl)-(1H)-benzimidazole], in assay [2] (setting [3]), it took a dose of 2.8 µmol/kg to reach the 50% effect level (ED50). The IC50 in assay [1] worked out at 320 nM.

As to `COc1ccc2[nH]c([S+]([O-])Cc3nccc(N4CCCC4)n3)nc2c1` (stereo not shown) [Example 7, 5-methoxy-2-(4-pyrrolidino-2-pyrimidinylmethylsulphinyl)-(1H)-benzimidazole], it took 2440 nM to reach half-maximal inhibition in assay [1] (IC50). Same read-out and setting: the value for `COc1ccc2[nH]c([S+]([O-])Cc3cc(N4CCCCC4)ncn3)nc2c1` (stereo not shown) [Example 19, 5-methoxy-2-(6-piperidino-4-pyrimidinylmethylsulphinyl)-(1H)-benzimidazole] was 2640 nM. On to `COc1ccc2[nH]c([S+]([O-])Cc3nccc(N4CCCCC4)n3)nc2c1` (stereo not shown) [Example 3, 5-methoxy-2-(4-piperidino-2-pyrimidinylmethylsulphinyl)-(1H)-benzimidazoleCalcium Salt 2.5H2 O], for which, in assay [2] (iv, i.v. administration), the 50% effective dose (ED50) came to 1.4 µmol/kg. The IC50 in assay [1] is 16000 nM. Moreover, the “inhibition of potassium stimulated H^+ -K^+ ATPase” value with H^+ -K^+ -ATPase (pre-incubation pH 6.1, 30 minutes at 37°) is reported as “found to inhibit”; in the assay with H^+ -K^+ -ATPase (pre-incubation pH 7.4, 30 minutes at 37°) it was “found to inhibit”.

Usually IC50 stands for the concentration needed to halve the response being measured. A high value points to weaker potency. As usually defined, the ED50 is the dose at which the effect has come halfway, by size or by number of responders.
